In this assay the test system is SN12K1 renal. As to the kind of experiment: DTP human tumour cell line panel, 48 h.

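In this assay, cells in 96-well plates receive the compound at five concentrations for 48 hours. Endpoints are linearly interpolated between the surrounding concentrations. TGI: concentration producing complete growth inhibition.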

In the case of `COc1cc(O)c2c(c1)C(=O)c1cc3c(c(O)c1C2=O)C(OC1OC(C)C(O)C(O)C1OC)C(OC)C(C)(O)C3=O` (stereo unspecified), the TGI came to 7.14 µM.

As a reminder, the TGI is the concentration giving total growth inhibition. Low readings indicate more potent growth arrest, high ones less potent growth arrest.

For the origin of these results see PubChem BioAssay (NCI).
